Results as given in patent publication US20230072683A1, “PYRIDO-PYRIMIDIN DERIVATIVES AND PHARMACEUTICAL COMPOSITION, FOR USE IN PREVENTING OR TREATING PI3 KINASE RELATED DISEASES, COMPRISING SAME AS ACTIVE INGREDIENT” (BORYUNG PHARMACEUTICAL CO., LTD, priority 2019, published 2023).
Like-named read-outs stand apart in the source and are kept apart here.

How the values were obtained:
[1] = molecular target: PI3K-δ (PI3K(p1108/p857) (h)) (Homo sapiens, UniProt O00329); test: Evaluation of inhibitory activity against PI3K-δ (HTRF kinase assay); type: biochemical; conditions: for inhibition at 0.01 µM: read-out: EXP_VALUE(% Inhibition) PI3K-δ 0.01 μM; for inhibition at 0.1 µM: read-out: EXP_VALUE(% Inhibition) PI3K-δ 0.1 μM
Chain of PI3K-δ (PI3K(p1108/p857) (h)) (O00329 whole entry): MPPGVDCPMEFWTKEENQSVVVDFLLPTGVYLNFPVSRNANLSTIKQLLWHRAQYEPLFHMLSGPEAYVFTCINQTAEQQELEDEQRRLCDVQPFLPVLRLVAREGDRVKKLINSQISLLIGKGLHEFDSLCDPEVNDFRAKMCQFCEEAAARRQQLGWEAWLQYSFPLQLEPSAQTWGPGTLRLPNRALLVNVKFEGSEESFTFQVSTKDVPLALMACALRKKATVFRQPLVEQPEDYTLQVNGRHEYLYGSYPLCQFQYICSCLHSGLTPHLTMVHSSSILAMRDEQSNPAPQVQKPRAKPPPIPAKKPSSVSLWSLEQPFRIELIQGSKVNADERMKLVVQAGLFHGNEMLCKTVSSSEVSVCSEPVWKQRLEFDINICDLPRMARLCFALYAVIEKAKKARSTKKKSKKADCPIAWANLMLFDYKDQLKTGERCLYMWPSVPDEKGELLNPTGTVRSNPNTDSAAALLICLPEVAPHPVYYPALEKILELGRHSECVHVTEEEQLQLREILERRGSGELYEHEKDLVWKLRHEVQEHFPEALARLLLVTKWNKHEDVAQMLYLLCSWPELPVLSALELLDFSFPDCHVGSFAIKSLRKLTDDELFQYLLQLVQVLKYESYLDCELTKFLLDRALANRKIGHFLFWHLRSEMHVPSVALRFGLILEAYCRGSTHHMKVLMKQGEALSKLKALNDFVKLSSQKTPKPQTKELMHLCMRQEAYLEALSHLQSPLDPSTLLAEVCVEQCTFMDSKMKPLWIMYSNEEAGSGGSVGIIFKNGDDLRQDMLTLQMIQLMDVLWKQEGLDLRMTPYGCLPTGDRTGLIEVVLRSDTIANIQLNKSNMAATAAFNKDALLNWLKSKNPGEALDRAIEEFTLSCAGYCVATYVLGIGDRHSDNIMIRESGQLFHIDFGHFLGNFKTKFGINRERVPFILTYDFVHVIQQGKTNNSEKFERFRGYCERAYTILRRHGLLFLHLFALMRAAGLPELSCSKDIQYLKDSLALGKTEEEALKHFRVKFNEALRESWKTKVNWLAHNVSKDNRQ
Chain of PI3K-δ (PI3K(p1108/p857) (h)) (P27986 whole entry partner): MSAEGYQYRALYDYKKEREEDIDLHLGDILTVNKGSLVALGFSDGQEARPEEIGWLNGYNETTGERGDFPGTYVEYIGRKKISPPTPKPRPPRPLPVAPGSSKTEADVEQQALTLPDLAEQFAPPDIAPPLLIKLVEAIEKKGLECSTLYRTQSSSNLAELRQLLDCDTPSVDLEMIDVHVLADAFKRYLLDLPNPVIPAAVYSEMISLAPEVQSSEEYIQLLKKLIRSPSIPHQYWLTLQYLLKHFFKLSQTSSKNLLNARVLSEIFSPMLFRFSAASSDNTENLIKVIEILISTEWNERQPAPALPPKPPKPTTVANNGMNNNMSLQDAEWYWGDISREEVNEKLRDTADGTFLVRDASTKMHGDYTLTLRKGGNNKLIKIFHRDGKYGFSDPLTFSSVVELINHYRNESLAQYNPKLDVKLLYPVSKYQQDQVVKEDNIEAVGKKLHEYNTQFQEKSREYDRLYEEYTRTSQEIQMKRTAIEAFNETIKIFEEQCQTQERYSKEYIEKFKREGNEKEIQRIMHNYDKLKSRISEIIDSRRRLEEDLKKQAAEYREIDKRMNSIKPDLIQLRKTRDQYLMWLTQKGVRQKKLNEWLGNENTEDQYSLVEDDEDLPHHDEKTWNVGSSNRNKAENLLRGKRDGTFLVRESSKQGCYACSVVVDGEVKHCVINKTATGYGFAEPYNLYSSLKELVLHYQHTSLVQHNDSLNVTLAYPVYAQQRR
Protocol: <Experimental Example 1> Evaluation of Inhibitory Activity Properties Against PI3K-δ
The following experiments were performed to verify the inhibitory activity against PI3K-δ with regard to each of the compounds of Examples 1 to 441 according to the present invention.
PI3K(p1108/p857) (h) was incubated in assay buffer comprising 10 μM phosphatidylinositol-4,5-bisphosphate and Mg/ATP (at a concentration as required). The reaction was initiated by the addition of a Mg/ATP mixture, and after incubation for 30 minutes at room temperature, a stop solution comprising EDTA and phosphatidylinositol-3,4,5-triphosphate was added to stop the reaction and carry out biotinylation.
A detection buffer comprising Eu (europium)-labelled anti-GST monoclonal antibody, GST-tagged GRP1 PH domain and streptavidin-allophycocyanin was added. A plate was read in a time-resolved fluorescence mode and a homogeneous time-resolved fluorescence (HTRF) signal was determined according to HTRF=10000×(Em 665 nm/Em 620 nm).

DNA-PK(h) = DNA-PK(h) (Homo sapiens, UniProt P78527); test: Evaluation of inhibitory activity against DNA-PK (HTRF kinase assay, GST-cMyc-p53 substrate); type: biochemical; conditions: for inhibition at 0.01 µM: read-out: EXP_VALUE(% Inhibition) DNA-PK(h) 0.01 μM; for inhibition at 0.1 µM: read-out: EXP_VALUE(% Inhibition) DNA-PK(h) 0.1 μM
Protocol: <Experimental Example 2> Evaluation of Inhibitory Activity Properties Against DNA-PK
The following experiments were performed to verify the inhibitory activity against DNA-PK with regard to each of the compounds of Examples 1 to 441 according to the present invention.
DNA-PK(h) was subjected to an isothermal treatment in an assay buffer comprising […] GST-cMyc-p53 and Mg/ATP (at a concentration as required). The reaction was initiated by the addition of a Mg/ATP mixture, and after incubation for 30 minutes at room temperature, a stop solution comprising EDTA was added to stop the reaction. A detection buffer comprising d2-labelled anti-GST monoclonal antibody and Europium-labelled anti-phospho Ser15 antibody for phosphorylated p53 was added. A plate was read in a time-resolved fluorescence mode and a homogeneous time-resolved fluorescence (HTRF) signal was determined according to HTRF=10000×(Em 665 nm/Em 620 nm).

SMILES | inhibition at 0.01 µM ([1]; compound concentration 0.01 μM) [%] | inhibition at 0.1 µM ([1]; compound concentration 0.1 μM) [%] | inhibition at 0.01 µM (DNA-PK(h); compound concentration 0.01 μM) [%] | inhibition at 0.1 µM (DNA-PK(h); compound concentration 0.1 μM) [%] | inhibition at 0.1 µM ([1]; compound at 0.1 μM) [%] | inhibition at 0.1 µM (DNA-PK(h); compound at 0.1 μM) [%] | inhibition at 0.01 µM ([1]; compound at 0.01 μM) [%] | inhibition at 0.01 µM (DNA-PK(h); compound at 0.01 μM) [%]
Cc1ccc(-c2cccc3c(Cl)c([C@H](C)Nc4ncnc5[nH]ccc(=O)c45)n(-c4ccccc4)c(=O)c23)cc1 [Example 255, (S)-4-((1-(4-chloro-1-oxo-2-phenyl-8-(p-tolyl)-1,2-dihydroisoquinolin-3-yl)ethyl)amino)pyrido[2,3-d]pyrimidin-5(8H)-one] | 25.1 | 50.9 | 15.6 | 73.6 |  |  |  | 
C[C@H](Nc1ncnc2[nH]ccc(=O)c12)c1c(Cl)c2cccc(-c3cccs3)c2c(=O)n1-c1ccccc1 [Example 388, (S)-4-((1-(4-chloro-1-oxo-2-phenyl-8-(thiophen-2-yl)-1,2-dihydroisoquinolin-3-yl)ethyl)amino)pyrido[2,3-d]pyrimidin-5(8H)-one] |  |  |  |  | 80 | 68 |  | 
C[C@H](Nc1ncnc2[nH]ccc(=O)c12)c1c(Cl)c2cccc(N(C)Cc3ccc4ccccc4c3)c2c(=O)n1-c1ccccc1 [Example 334, (S)-4-((1-(4-chloro-8-(methyl(naphthalen-2-ylmethyl)amino)-1-oxo-2-phenyl-1,2-dihydroisoquinolin-3-yl)ethyl)amino)pyrido[2,3-d]pyrimidin-5(8H)-one] | 9 | 49 | 10 | 27 |  |  |  | 
C[C@H](O)c1cccc2c(Cl)c([C@H](C)Nc3ncnc4[nH]ccc(=O)c34)n(-c3ccccc3)c(=O)c12 [Example 441, 4-(((S)-1-(4-chloro-8-((S)-1-hydroxyethyl)-1-oxo-2-phenyl-1,2-dihydroisoquinolin-3-yl)ethyl)amino)pyrido[2,3-d]pyrimidin-5(8H)-one] |  |  |  |  |  |  | 54 | 35
C[C@H](Nc1ncnc2[nH]ccc(=O)c12)c1c(Cl)c2cccc(-c3cccc(F)c3Cl)c2c(=O)n1-c1ccccc1 [Example 106, (S)-4-((1-(4-chloro-8-(2-chloro-3-fluorophenyl)-1-oxo-2-phenyl-1,2-dihydroisoquinolin-3-yl)ethyl)amino)pyrido[2,3-d]pyrimidin-5(8H)-one] | 53 | 87 | 14 | 59 |  |  |  | 
C[C@H](Nc1ncnc2[nH]ccc(=O)c12)c1c(Cl)c2cccc(-c3ccc(N4CCN(C)CC4)cc3)c2c(=O)n1-c1ccccc1 [Example 179, (S)-4-((1-(4-chloro-8-(4-(4-methylpiperazin-1-yl)phenyl)-1-oxo-2-phenyl-1,2-dihydroisoquinolin-3-yl)ethyl)amino)pyrido[2,3-d]pyrimidin-5(8H)-one] | 86 |  | 91 |  |  |  |  | 
CC(=O)c1ncc(-c2cccc3c(Cl)c([C@H](C)Nc4ncnc5[nH]ccc(=O)c45)n(-c4ccccc4)c(=O)c23)cn1 [Example 403, (S)-4-((1-(8-(2-acetylpyrimidin-5-yl)-4-chloro-1-oxo-2-phenyl-1,2-dihydroisoquinolin-3-yl)ethyl)amino)pyrido[2,3-d]pyrimidin-5(8H)-one] |  |  |  |  | 80 | 46 |  | 
C[C@H](Nc1ncnc2[nH]ccc(=O)c12)c1c(Cl)c2cccc(-c3ccncc3)c2c(=O)n1-c1ccccc1 [Example 134, (S)-4-((1-(4-chloro-1-oxo-2-phenyl-8-(pyridin-4-yl)-1,2-dihydroisoquinolin-3-yl)ethyl)amino)pyrido[2,3-d]pyrimidin-5(8H)-one] | 85 | 92 | 83 | 97 |  |  |  | 

Next, values leading:

inhibition at 0.01 µM ([1]; compound concentration 0.01 μM) [%] | inhibition at 0.1 µM ([1]; compound concentration 0.1 μM) [%] | inhibition at 0.01 µM (DNA-PK(h); compound concentration 0.01 μM) [%] | inhibition at 0.1 µM (DNA-PK(h); compound concentration 0.1 μM) [%] | inhibition at 0.1 µM ([1]; compound at 0.1 μM) [%] | inhibition at 0.1 µM (DNA-PK(h); compound at 0.1 μM) [%] | inhibition at 0.01 µM ([1]; compound at 0.01 μM) [%] | inhibition at 0.01 µM (DNA-PK(h); compound at 0.01 μM) [%] | SMILES
10 |  | 2 |  |  |  |  |  | COc1cc(-c2cccc3c(Cl)c([C@H](C)Nc4ncnc5[nH]ccc(=O)c45)n(-c4ccccc4)c(=O)c23)ncn1 [Example 45, (S)-4-((1-(4-chloro-8-(6-methoxypyrimidin-4-yl)-1-oxo-2-phenyl-1,2-dihydroisoquinolin-3-yl)ethyl)amino)pyrido[2,3-d]pyrimidin-5(8H)-one]
10 |  | 0 |  |  |  |  |  | COc1ccc(Nc2cccc3c(Cl)c([C@H](C)Nc4ncnc5[nH]ccc(=O)c45)n(-c4ccccc4)c(=O)c23)cc1 [Example 345, (S)-4-((1-(4-chloro-8-((4-methoxyphenyl)amino)-1-oxo-2-phenyl-1,2-dihydroisoquinolin-3-yl)ethyl)amino)pyrido[2,3-d]pyrimidin-5(8H)-one]
108 | 116 | 50 | 86 |  |  |  |  | C[C@H](Nc1ncnc2[nH]ccc(=O)c12)c1c(Cl)c2cccc(-c3ccc(C#N)cc3)c2c(=O)n1-c1ccccc1 [Example 259, (S)-4-(4-chloro-1-oxo-3-(1-((5-oxo-5,8-dihydropyrido[2,3-d]pyrimidin-4-yl)amino)ethyl)-2-phenyl-1,2-dihydroisoquinolin-8-yl)benzonitrile]
6 | 19 | 7 | 14 |  |  |  |  | C[C@H](Nc1ncnc2[nH]ccc(=O)c12)c1c(Cl)c2cccc(N3CCC(c4ccccc4)CC3)c2c(=O)n1-c1ccccc1 [Example 336, (S)-4-((1-(4-chloro-1-oxo-2-phenyl-8-(4-phenylpiperidin-1-yl)-1,2-dihydroisoquinolin-3-yl)ethyl)amino)pyrido[2,3-d]pyrimidin-5(8H)-one]
16 |  | 16 |  |  |  |  |  | C[C@H](Nc1ncnc2[nH]ccc(=O)c12)c1c(Cl)c2cccc(NS(=O)(=O)CC(F)(F)F)c2c(=O)n1-c1ccccc1 [Example 302, (S)—N-(4-chloro-1-oxo-3-(1-((5-oxo-5,8-dihydropyrido[2,3-d]pyrimidin-4-yl)amino)ethyl)-2-phenyl-1,2-dihydroisoquinolin-8-yl)-2,2,2-trifluoroethane-1-sulfonamide]
37 |  | -1 |  |  |  |  |  | C[C@H](Nc1ncnc2[nH]ccc(=O)c12)c1c(Cl)c2cccc(C3OCC(C)(C)CO3)c2c(=O)n1-c1ccccc1 [Example 358, (S)-4-((1-(4-chloro-8-(5,5-dimethyl-1,3-dioxan-2-yl)-1-oxo-2-phenyl-1,2-dihydroisoquinolin-3-yl)ethyl)amino)pyrido[2,3-d]pyrimidin-5(8H)-one]
73 | 94 | 74 | 94 |  |  |  |  | Cc1c(-c2cccc3c(Cl)c([C@H](C)Nc4ncnc5[nH]ccc(=O)c45)n(-c4ccccc4)c(=O)c23)cnn1C [Example 82, (S)-4-((1-(4-chloro-8-(1,5-dimethyl-1H-pyrazol-4-yl)-1-oxo-2-phenyl-1,2-dihydroisoquinolin-3-yl)ethyl)amino)pyrido[2,3-d]pyrimidin-5(8H)-one]
71 | 87 | 40 | 77 |  |  |  |  | C[C@H](Nc1ncnc2[nH]ccc(=O)c12)c1c(Cl)c2cccc(C#N)c2c(=O)n1-c1ccccc1 [Example 265, (S)-4-chloro-1-oxo-3-(1-((5-oxo-5,8-dihydropyrido[2,3-d]pyrimidin-4-yl)amino)ethyl)-2-phenyl-1,2-dihydroisoquinoline-8-carbonitrile]
90 | 99 | 69 | 95 |  |  |  |  | C[C@H](Nc1ncnc2[nH]ccc(=O)c12)c1c(Cl)c2cccc(-c3ccc4[nH]c(=O)[nH]c4c3)c2c(=O)n1-c1ccccc1 [Example 21, (S)-4-((1-(4-chloro-1-oxo-8-(2-oxo-2,3-dihydro-1H-benzo[d]imidazol-5-yl)-2-phenyl-1,2-dihydroisoquinolin-3-yl)ethyl)amino)pyrido[2,3-d]pyrimidin-5(8H)-one]
32 | 82 | 0 | 57 |  |  |  |  | C[C@H](Nc1ncnc2[nH]ccc(=O)c12)c1c(Cl)c2cccc(N3CCN(C)CC3)c2c(=O)n1-c1ccccc1 [Example 250, (S)-4-((1-(4-chloro-8-(4-methylpiperazin-1-yl)-1-oxo-2-phenyl-1,2-dihydroisoquinolin-3-yl)ethyl)amino)pyrido[2,3-d]pyrimidin-5(8H)-one]
